# Organism: Rattus norvegicus
# Experiment: DrugMatrix - Regimen: Daily Repeat
# Format: toxicity, organism-based, Sprague-Dawley
# Set-up: regimen Daily Repeat, gender Male, age 6-8 weeks
# Conditions: in vivo, po, route oral GAVAGE, vehicle .5 % CMC; for ABSOLUTE BASOPHIL / ABSOLUTE EOSINOPHIL / ABSOLUTE LYMPHOCYTE / ABSOLUTE MONOCYTE / ABSOLUTE SEGMENTED NEUTROPHIL / BASOPHIL / EOSINOPHIL / ERYTHROCYTE COUNT / HEMATOCRIT / HEMOGLOBIN / LEUKOCYTE COUNT / LYMPHOCYTE / MEAN CORPUSCULAR HEMOGLOBIN / MEAN CORPUSCULAR HEMOGLOBIN CONCENTRATION / MEAN CORPUSCULAR VOLUME / MONOCYTE / NEUTROPHIL / NUCLEATED RED BLOOD CELLS / PLATELET COUNT: tissue Blood; for ALANINE AMINOTRANSFERASE / ALBUMIN / ALKALINE PHOSPHATASE / ASPARTATE AMINOTRANSFERASE / BLOOD UREA NITROGEN / CARBON DIOXIDE / CHLORIDE / CHOLESTEROL / CREATINE PHOSPHOKINASE / CREATININE / GLUCOSE / LACTATE DEHYDROGENASE / LIPASE / PHOSPHORUS / POTASSIUM / SODIUM / TOTAL BILIRUBIN / TOTAL PROTEIN / URIC ACID: tissue Plasma
# [1] = 2000 mg/kg, 120 h, dose level High, time 5 day
# [2] = […], 72 h, dose 9.5 mg/Kg, dose level Low, time 3 day
# [3] = […], 120 h, dose 9.5 mg/Kg, dose level Low, time 5 day
compound,measurement,setting,value
O=C1Nc2ccc(Cl)cc2C(c2ccccc2Cl)=NC1O (centres undefined) [LORAZEPAM],ABSOLUTE BASOPHIL,[1],0 CELLS/uL
same,ABSOLUTE EOSINOPHIL,[1],0 CELLS/uL
same,ABSOLUTE LYMPHOCYTE,[1],9298.5 CELLS/uL
same,ABSOLUTE MONOCYTE,[1],148 CELLS/uL
same,ABSOLUTE SEGMENTED NEUTROPHIL,[1],903.5 CELLS/uL
same,BASOPHIL,[1],0%
same,EOSINOPHIL,[1],0%
same,ERYTHROCYTE COUNT,[1],6.25 x10E6/uL
same,HEMATOCRIT,[1],36.95%
same,HEMOGLOBIN,[1],14.95 G/DL
same,LEUKOCYTE COUNT,[1],10.35 x10E3/uL
same,LYMPHOCYTE,[1],89%
same,MEAN CORPUSCULAR HEMOGLOBIN,[1],23.95 pg
same,MEAN CORPUSCULAR HEMOGLOBIN CONCENTRATION,[1],40.5 G/DL
same,MEAN CORPUSCULAR VOLUME,[1],59.1 fL
same,MONOCYTE,[1],1.5%
same,NEUTROPHIL,[1],9.5%
same,NUCLEATED RED BLOOD CELLS,[1],0 /100WBC
same,PLATELET COUNT,[1],1267 x10E3/uL
same,ALANINE AMINOTRANSFERASE,[1],64.5 u/L
same,ALBUMIN,[1],4.15 G/DL
same,ALKALINE PHOSPHATASE,[1],283.5 u/L
same,ASPARTATE AMINOTRANSFERASE,[1],92 u/L
same,BLOOD UREA NITROGEN,[1],21.5 mg/dL
same,CARBON DIOXIDE,[1],29.5 mmol/L
same,CHLORIDE,[1],100.5 MEQ/L
same,CHOLESTEROL,[1],76.5 mg/dL
same,CREATINE PHOSPHOKINASE,[1],814 u/L
same,CREATININE,[1],0.18 mg/dL
same,GLUCOSE,[1],150.5 mg/dL
same,LACTATE DEHYDROGENASE,[1],206 u/L
same,LIPASE,[1],17.5 u/L
same,PHOSPHORUS,[1],8.55 mg/dL
same,POTASSIUM,[1],5.62 MEQ/L
same,SODIUM,[1],145.4 MEQ/L
same,TOTAL BILIRUBIN,[1],0.1 mg/dL
same,TOTAL PROTEIN,[1],6.2 G/DL
same,URIC ACID,[1],0.65 mg/dL
same,ABSOLUTE BASOPHIL,[2],0 CELLS/uL
same,ABSOLUTE EOSINOPHIL,[2],223.33 CELLS/uL
same,ABSOLUTE LYMPHOCYTE,[2],14276.33 CELLS/uL
same,ABSOLUTE MONOCYTE,[2],155.67 CELLS/uL
same,ABSOLUTE SEGMENTED NEUTROPHIL,[2],1244.67 CELLS/uL
same,BASOPHIL,[2],0%
same,EOSINOPHIL,[2],1.33%
same,ERYTHROCYTE COUNT,[2],5.67 x10E6/uL
same,HEMATOCRIT,[2],36.03%
same,HEMOGLOBIN,[2],13.93 G/DL
same,LEUKOCYTE COUNT,[2],15.9 x10E3/uL
same,LYMPHOCYTE,[2],89.67%
same,MEAN CORPUSCULAR HEMOGLOBIN,[2],24.57 pg
same,MEAN CORPUSCULAR HEMOGLOBIN CONCENTRATION,[2],38.67 G/DL
same,MEAN CORPUSCULAR VOLUME,[2],63.57 fL
same,MONOCYTE,[2],1%
same,NEUTROPHIL,[2],8%
same,NUCLEATED RED BLOOD CELLS,[2],0 /100WBC
same,PLATELET COUNT,[2],1298 x10E3/uL
same,ALANINE AMINOTRANSFERASE,[2],70 u/L
same,ALBUMIN,[2],4.33 G/DL
same,ALKALINE PHOSPHATASE,[2],451.67 u/L
same,ASPARTATE AMINOTRANSFERASE,[2],99.67 u/L
same,BLOOD UREA NITROGEN,[2],17.33 mg/dL
same,CARBON DIOXIDE,[2],24 mmol/L
same,CHLORIDE,[2],102.67 MEQ/L
same,CHOLESTEROL,[2],65.67 mg/dL
same,CREATINE PHOSPHOKINASE,[2],485.67 u/L
same,CREATININE,[2],0.22 mg/dL
same,GLUCOSE,[2],158 mg/dL
same,LACTATE DEHYDROGENASE,[2],594 u/L
same,LIPASE,[2],11 u/L
same,PHOSPHORUS,[2],10.17 mg/dL
same,POTASSIUM,[2],6.03 MEQ/L
same,SODIUM,[2],142.63 MEQ/L
same,TOTAL BILIRUBIN,[2],0.13 mg/dL
same,TOTAL PROTEIN,[2],5.93 G/DL
same,URIC ACID,[2],1.43 mg/dL
same,ABSOLUTE BASOPHIL,[3],0 CELLS/uL
same,ABSOLUTE EOSINOPHIL,[3],0 CELLS/uL
same,ABSOLUTE LYMPHOCYTE,[3],12357 CELLS/uL
same,ABSOLUTE MONOCYTE,[3],82 CELLS/uL
same,ABSOLUTE SEGMENTED NEUTROPHIL,[3],461 CELLS/uL
same,BASOPHIL,[3],0%
same,EOSINOPHIL,[3],0%
same,ERYTHROCYTE COUNT,[3],6.11 x10E6/uL
same,HEMATOCRIT,[3],37.87%
same,HEMOGLOBIN,[3],14.63 G/DL
same,LEUKOCYTE COUNT,[3],12.9 x10E3/uL
same,LYMPHOCYTE,[3],95.67%
same,MEAN CORPUSCULAR HEMOGLOBIN,[3],23.97 pg
same,MEAN CORPUSCULAR HEMOGLOBIN CONCENTRATION,[3],38.63 G/DL
same,MEAN CORPUSCULAR VOLUME,[3],62.07 fL
same,MONOCYTE,[3],0.67%
same,NEUTROPHIL,[3],3.67%
same,NUCLEATED RED BLOOD CELLS,[3],0 /100WBC
same,PLATELET COUNT,[3],1313 x10E3/uL
same,ALANINE AMINOTRANSFERASE,[3],62 u/L
same,ALBUMIN,[3],4.13 G/DL
same,ALKALINE PHOSPHATASE,[3],373.33 u/L
same,ASPARTATE AMINOTRANSFERASE,[3],87.67 u/L
same,BLOOD UREA NITROGEN,[3],12 mg/dL
same,CARBON DIOXIDE,[3],25 mmol/L
same,CHLORIDE,[3],104.33 MEQ/L
same,CHOLESTEROL,[3],26.67 mg/dL
same,CREATINE PHOSPHOKINASE,[3],550.33 u/L
same,CREATININE,[3],0.15 mg/dL
same,GLUCOSE,[3],136.33 mg/dL
same,LACTATE DEHYDROGENASE,[3],527.67 u/L
same,LIPASE,[3],9.33 u/L
same,PHOSPHORUS,[3],10.97 mg/dL
same,POTASSIUM,[3],6.04 MEQ/L
same,SODIUM,[3],143.63 MEQ/L
same,TOTAL BILIRUBIN,[3],0.13 mg/dL
same,TOTAL PROTEIN,[3],5.8 G/DL
same,URIC ACID,[3],1.67 mg/dL
